# Experimental data as given in US20100144760A1, “NOVEL COMPOUNDS” (priority 2008, published 2010).
# Ends that are not written are not given here.
# Key:
# human Orexin-1 receptor = target: T1, human Orexin-1 receptor (Homo sapiens, UniProt O43613); test: Antagonist affinity at human Orexin-1 receptor using FLIPR ([Ca2+]i); format: cell-based; conditions: functional pKi from IC50 by modified Cheng-Prusoff correction
# T1 sequence (O43613 1-425 A280G): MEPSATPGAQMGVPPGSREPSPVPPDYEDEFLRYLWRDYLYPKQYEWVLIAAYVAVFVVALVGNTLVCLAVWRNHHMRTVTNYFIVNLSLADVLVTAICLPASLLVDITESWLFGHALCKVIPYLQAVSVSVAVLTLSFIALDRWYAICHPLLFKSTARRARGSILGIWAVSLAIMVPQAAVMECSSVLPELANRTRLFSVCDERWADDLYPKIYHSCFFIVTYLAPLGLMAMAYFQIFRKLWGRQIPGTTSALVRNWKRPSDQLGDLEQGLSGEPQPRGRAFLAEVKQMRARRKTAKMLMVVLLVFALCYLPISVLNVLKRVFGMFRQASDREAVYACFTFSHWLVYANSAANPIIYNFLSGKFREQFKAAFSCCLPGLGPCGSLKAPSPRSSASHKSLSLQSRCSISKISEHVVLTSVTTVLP
# Text: (§1) Determination of antagonist affinity at human Orexin-1 and 2 receptors using FLIPR
# (§2) Adherent Chinese Hamster Ovary (CHO) cells, stably expressing the recombinant human Orexin-1 or human Orexin-2 receptors or Rat Basophilic Leukaemia Cells (RBL) stably expressing recombinant rat Orexin-1 or rat Orexin-2 receptors were maintained in culture in Alpha Minimum Essential Medium (Gibco/Invitrogen, cat. no.; 22571-020), supplemented with 10% decomplemented foetal bovine serum (Life Technologies, cat. no. 10106-078) and 400 μg/mL Geneticin G418 (Calbiochem, cat. no. 345810). Cells were grown as monolayers under 95%:5% air: CO2 at 37° C.
# (§3) The sequences of the human orexin 1, human orexin 2, rat orexin 1 and rat orexin 2 receptors used in this example were as published in Sakurai, T. et al (1998) Cell, 92 pp 573 to 585. Some examples were tested against the human orexin 1 receptor as published in Sakurai et al supra with the exception that the amino acid residue at position 280 was alanine and not glycine.
# (§4) Cells were seeded into black clear-bottom 384-well plates (density of 20,000 cells per well) in culture medium as described above and maintained overnight (95%:5% air:CO2 at 37° C.). On the day of the experiment, culture medium were discarded and the cells washed three times with standard buffer (NaCl, 145 mM; KCl, 5 mM; HEPES, 20 mM; Glucose, 5.5 mM; MgCl2, 1 mM; CaCl2, 2 mM) added with Probenecid 2.5 mM. The plates were then incubated at 37° C. for 60 minutes in the dark with 2 μM FLUO-4AM dye to allow cell uptake of the FLUO-4AM, which is subsequently converted by intracellular esterases to FLUO-4, which is unable to leave the cells. After incubation, cells were washed three times with standard buffer to remove extracellular dye and 30 μL of buffer were left in each well after washing.
# (§5) Compounds of the invention were tested in a final assay concentration range from 1.66×10^−5M to 1.58×10^−11M. Compounds of the invention were dissolved in dimethylsulfoxide (DMSO) at a stock concentration of 10 mM. These stock solutions were serially diluted with DMSO and 1 μL of each dilution was transferred to a 384 well compound plate. Immediately before introducing compound to the cells, buffer solution (50 μl/well) was added to this plate. To allow agonist stimulation of the cells, a stock plate containing a solution of human orexin A (hOrexin A) was diluted with buffer to final concentration just before use. This final concentration of hOrexin A was equivalent to the calculated EC80 for hOrexinA agonist potency in this test system. This value was obtained by testing hOrexinA in concentration response curve (at least 16 replicates) the same day of the experiment.
# (§6) The loaded cells were then incubated for 10 min at 37° C. with test compound. The plates were then placed into a FLIPR™ (Molecular Devices, UK) to monitor cell fluorescence (λex=488 nm, λEM=540 nm) (Sullivan E, Tucker E M, Dale I L. Measurement of [Ca^2+]i using the fluometric imaging plate reader (FLIPR). In: Lambert DG (ed.), Calcium Signaling Protocols. New Jersey: Humana Press, 1999, 125-136). A baseline fluorescence reading was taken over a 5 to 10 second period, and then 10 μL of EC80 hOrexinA solution was added. The fluorescence was then read over a […] period.
# Functional responses using FLIPR were measured as peak fluorescence intensity minus basal fluorescence and expressed as a percentage of a non-inhibited Orexin-A-induced response on the same plate. Iterative curve-fitting and parameter estimations were carried out using a four parameter logistic model and Microsoft Excel (Bowen W P, Jerman J C. Nonlinear regression using spreadsheets. Trends Pharmacol. Sci. 1995; 16: 413-417). […]
# human Orexin-2 receptor = target: T2, human Orexin-2 receptor (Homo sapiens, UniProt O43614); test: Antagonist affinity at human Orexin-2 receptor using FLIPR ([Ca2+]i); format: cell-based; conditions: functional pKi from IC50 by modified Cheng-Prusoff correction, read-out: fpKi Orexin 2 receptor (converted)
# T2 construct: expressed in transfected cells
# T2 sequence (O43614 1-444): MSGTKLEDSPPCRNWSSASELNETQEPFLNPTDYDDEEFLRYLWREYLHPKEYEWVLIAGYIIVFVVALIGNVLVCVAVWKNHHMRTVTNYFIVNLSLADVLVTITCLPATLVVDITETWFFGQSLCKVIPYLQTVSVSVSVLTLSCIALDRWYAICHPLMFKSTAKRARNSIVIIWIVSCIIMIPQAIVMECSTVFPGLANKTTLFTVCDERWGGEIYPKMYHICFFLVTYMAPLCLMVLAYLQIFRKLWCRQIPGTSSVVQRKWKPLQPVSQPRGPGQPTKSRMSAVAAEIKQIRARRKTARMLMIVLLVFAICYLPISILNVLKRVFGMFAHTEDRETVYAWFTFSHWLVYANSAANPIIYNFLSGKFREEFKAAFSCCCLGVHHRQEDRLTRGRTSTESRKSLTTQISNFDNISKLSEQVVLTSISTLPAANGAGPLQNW
# Text: as §1, §2, §3, §4, §5, §6
# Functional responses using FLIPR were measured as peak fluorescence intensity minus basal fluorescence and expressed as a percentage of a non-inhibited Orexin-A-induced response on the same plate. Iterative curve-fitting and parameter estimations were carried out using a four parameter logistic model and Microsoft Excel (Bowen W P, Jerman J C. Nonlinear regression using spreadsheets. Trends Pharmacol. Sci. 1995; 16: 413-417).
# rats [1] = conditions: cited from earlier work
# rats [2] = conditions: cited from earlier work; remark: listed apart in the source
# freely-feeding rats = conditions: central administration, 4 hour time period; cited from earlier work
# rats [3] = conditions: central administration at the onset of the normal sleep period; cited from earlier work
Compound,fpKi Orexin 1 receptor (human Orexin-1 receptor),Ki (human Orexin-2 receptor) [µM],also measured
"CCOc1ccc(C)nc1C(=O)N1C[C@@H]2C[C@@H]2C[C@H]1CNc1ncc(C)cn1 [Example 55, N-[((1R,4S,6R)-3-{[3-(ethyloxy)-6-methyl-2-pyridinyl]carbonyl}-3-azabicyclo[4.1.0]hept-4-yl)methyl]-5-methyl-2-pyrimidinamine]",9.1,0.1,
"Cc1ccc(-c2ncccc2C)c(C(=O)N2C[C@@H]3C[C@@H]3C[C@H]2CNc2ccc(C(F)(F)F)cn2)n1 [Example 51, N-({(1R,4S,6R)-3-[(3,6′-dimethyl-2,3′-bipyridin-2′-yl)carbonyl]-3-azabicyclo[4.1.0]hept-4-yl}methyl)-5-(trifluoromethyl)-2-pyridinamine]",9.2,0.0158,
"Cc1cnn(-c2ccc(C)nc2C(=O)N2C[C@@H]3C[C@@H]3C[C@H]2CNc2ccc(C(F)(F)F)cn2)c1 [Example 52, N-[((1R,4S,6R)-3-{[6-methyl-3-(4-methyl-1H-pyrazol-1-yl)-2-pyridinyl]carbonyl}-3-azabicyclo[4.1.0]hept-4-yl)methyl]-5-(trifluoromethyl)-2-pyridinamine]",9.2,0.000398,
"Cc1coc(-c2ccc(C)nc2C(=O)N2C[C@@H]3C[C@@H]3C[C@H]2CNc2ncc(C(F)(F)F)cn2)n1 [Example 59, N-[((1R,4S,6R)-3-{[6-methyl-3-(4-methyl-1,3-oxazol-2-yl)-2-pyridinyl]carbonyl}-3-azabicyclo[4.1.0]hept-4-yl)methyl]-5-(trifluoromethyl)-2-pyrimidinamine]",6.0,1.58,
"CCCOc1ccc(C)nc1C(=O)N1C[C@@H]2C[C@@H]2C[C@H]1CNc1ncc(C(F)(F)F)cn1 [Example 57, N-[((1R,4S,6R)-3-{[6-methyl-3-(propyloxy)-2-pyridinyl]carbonyl}-3-azabicyclo[4.1.0]hept-4-yl)methyl]-5-(trifluoromethyl)-2-pyrimidinamine]",9.5,0.0631,
Cc1nc2ccc(NC(=O)Nc3ccnc4cccnc34)cc2o1 [SB334867],,,hedonic eating (rats [1]): potently reduced; high-fat pellet self-administration (rats [2]): attenuated
"Cc1ccc(C(=O)N2C[C@@H]3C[C@@H]3C[C@H]2CNc2ccc(C(F)(F)F)cn2)nc1-c1ncccn1 [Example 53, N-[((1R,4S,6R)-3-{[5-methyl-6-(2-pyrimidinyl)-2-pyridinyl]carbonyl}-3-azabicyclo[4.1.0]hept-4-yl)methyl]-5-(trifluoromethyl)-2-pyridinamine]",6.0,> 3.31,
"CCCOc1ccc(C)nc1C(=O)N1C[C@@H]2C[C@@H]2C[C@H]1CNc1cnc(C)c(C)n1 [Example 58, 5,6-dimethyl-N-[((1R,4S,6R)-3-{[6-methyl-3-(propyloxy)-2-pyridinyl]carbonyl}-3-azabicyclo[4.1.0]hept-4-yl)methyl]-2-pyrazinamine]",9.0,0.00126,
"orexin-A: polypeptide ligand for the orexin-1 receptor; an agonist of the orexin receptors (QPLPDCCRQKTCSCRLYELLHGAGNHAAGILTL; ends and bridges not checked; cysteine pairing not given here; UniProt O43612 34-66, looked up)",,,increase of food intake over control rats receiving vehicle (freely-feeding rats): approximately four-fold; arousal (sleep/EEG) (rats [3]): dose-related increase in arousal
"Cc1ccc(NC[C@@H]2C[C@H]3C[C@H]3CN2C(=O)c2nc(C)ccc2OCC2CC2)nc1 [Example 54, N-{[(1R,4S,6R)-3-({3-[(cyclopropylmethyl)oxy]-6-methyl-2-pyridinyl}carbonyl)-3-azabicyclo[4.1.0]hept-4-yl]methyl}-5-methyl-2-pyridinamine]",9.3,0.00398,
"CCOc1ccc(C)nc1C(=O)N1C[C@@H]2C[C@@H]2C[C@H]1CNc1ncc(C(F)(F)F)cn1 [Example 56, N-[((1R,4S,6R)-3-{[3-(ethyloxy)-6-methyl-2-pyridinyl]carbonyl}-3-azabicyclo[4.1.0]hept-4-yl)methyl]-5-(trifluoromethyl)-2-pyrimidinamine]",9.5,,
